From US20190054054A1, “Methods reducing or preventing oxidation of high density lipoprotein (HDL)” (Amarin Pharmaceuticals Ireland Limited, priority 2017, published 2019)

Assays:
human LDL = assay: Copper-induced oxidation of unfractionated LDL, TBARS (Example 7); type: biochemical
Protocol: (§1) An experiment to study the antioxidant effect of EPA in LDL and small dense […] performed. […] Fenofibrate, gemfibrozil, and niacin were purchased from Sigma-Aldrich. […] Vitamin E was also incubated with sample aliquots as a positive control.

[1] = Glucose-induced membrane lipid peroxidation (LOOH, CHOD-iodide assay) in DLPC/cholesterol vesicles (Examples 4 and 5); type: biochemical; conditions: each at 1.0 μM; glucose 200 mg/dL; 96 hours
Protocol: Vitamin E (α-tocopherol) was also purchased from Sigma-Aldrich and prepared in ethanol at 1.0 mM (e=[…] at 294 nm) just prior to experimental use. […] All test compounds were further diluted in ethanol or aqueous buffer as needed. Glucose was prepared in saline buffer (0.5 mM HEPES, 154 mM NaCl, pH 7.3) at 11.0 mM (200 mg/dL). CHOD-iodide color reagent (stock) was prepared, with slight modification, as described by from El-Saadani et al. (J. […] Samples were shell-dried under nitrogen gas and placed under vacuum for 1 h to remove residual solvent. […] Lipid suspensions were then vortexed for 3 min at ambient temperature to form MLVs. All MLV samples were subjected to time-dependent autoxidation by incubating at 37° C. in an uncovered, shaking water bath. This method allows lipid peroxidation to occur gradually without requiring the use of exogenous initiators. Small aliquots (5-100 μL) of each sample were removed, immediately following MLV preparation (0 hour) and after exposing samples to oxidative conditions for 72 or 96 hour, and combined with 1.0 mL of activated CHOD-iodide color reagent. Aliquot volume was reduced with each successive time point to ensure that spectrophotometric readings were within the optimal adsorption range. Test samples were covered and incubated in darkness at room temperature for at least 4 hr. Sample absorbances were then measured against a CHOD blank at 365 nm using a Beckman DU-640 spectrophotometer. The CHOD colorimetric assay is based on the oxidation of iodide (I^−) by lipid hydroperoxide (LOOH) to form triiodide (I3^−), the quantity of which is directly proportional to the amount of LOOH present in the lipid sample. The molar absorptivity (ε) of I3^− is 2.46×10^4 M^−1 cm^−1 at 365 nm. An experiment was conducted to compare the ability of EPA to prevent lipid hydroperoxide formation in model membranes treated with glucose to two other 20-carbon fatty acids: eicosanoic acid (“EA,” also referred to as arachidic acid, C20:0) and eicosatrienoic acid (“ETE,” C20:3, n-3). All MLV samples were subjected to time-dependent autoxidation by incubating at 37° C. in an uncovered, shaking water bath. This method allows lipid peroxidation to occur gradually without requiring the use of exogenous initiators. Small aliquots (5-100 μL) of each sample were removed, immediately following MLV preparation (0 hr) and after exposing samples to oxidative conditions for 72 or 96 hr, and combined with 1.0 mL of activated CHOD-iodide color reagent. Aliquot volume was reduced with each successive time point to ensure that spectrophotometric readings were within the optimal adsorption range. Test samples were covered and incubated in darkness at room temperature for at least 4 hr. Sample absorbances were then measured against a CHOD blank at 365 nm using a Beckman DU-640 spectrophotometer. The CHOD colorimetric assay is based on the oxidation of iodide (I^−) by lipid hydroperoxide (LOOH) to form triiodide (I3^−), the quantity of which is directly proportional to the amount of LOOH present in the lipid sample. The molar absorptivity (ε) of I3^− is 2.46×10^4 M^−1 cm^−1 at 365 nm.

human sdLDL = assay: Copper-induced sdLDL oxidation, TBARS (Example 7); type: biochemical
Protocol: as §1

[2] = tested on: rat renal glomerular endothelial cells; assay: NO and ONOO^− release ex vivo from rat glomerular endothelial cells exposed to oxLDL and high glucose (Example 13); type: cell-based; conditions: oxLDL 11 mg/dL and glucose 300 mg/dL; treatment 1 hr at 10.0 μM; versus vehicle
Protocol: Healthy male Wistar Kyoto (WKY) rats, aged 7-9 weeks and weighing 250±20 g, were obtained from inbred colonies (National Institutes of Health, Bethesda, Md.). Animals were housed in a controlled environment that provided food and water ad libitum prior to the study. […] Animals were sacrificed and tissue samples obtained immediately for experimentation. All procedures were conducted in accordance with standard Institutional Animal Care and Use Committee guidelines and conformed to the Guide for the Care and Use of Laboratory Animals published by the US National Institutes of Health.
EPA and DHA were purchased from Sigma-Aldrich (St. Louis, Mo.) and solubilized in ethanol to 1.0 mM under nitrogen atmosphere. […] The calcium ionophore (Cal), A23187, was purchased from Sigma-Aldrich and prepared in aqueous buffer to 1.0 mM. All test compounds were further diluted in ethanol or aqueous buffer as needed.
Venous blood from healthy normolipidemic volunteers was collected into Na-EDTA (1 mg/mL blood) vacuum tubes after a 12-hour fast. […] The LDL fraction was dialyzed for 96 hours against PBS containing 0.3 mM EDTA and stored at 4° C. until experimental use.
LDL was oxidized according to the methods of Huber et al. 16 Briefly, the purified LDL fraction was dialyzed against Tris/NaCl Buffer (50 mM Tris in 0.15 M NaCl, pH 8.0) to remove EDTA. Additional buffer was added to adjust the protein concentration to 30 mg/mL. LDL oxidation was initiated with 20 μM CuSO4 and monitored spectrophotometrically (234 nm) over a period of 24 hours until complete. The oxLDL was then dialyzed at 4° C. with 4 L Tris buffer, filtered with a 0.22 µm filter, and stored under nitrogen at 4° C.
Immediately after sacrificing the rats, kidneys were removed, cut into […] sections and transferred to a separate organ chamber containing Dulbecco's phosphate buffered saline ([…]) and […] glucose at pH 7.4.
Concurrent measurements of NO and ONOO^− were performed on intact glomerular (cortical zone) endothelial cells using tandem electrochemical nanosensors, as previously described (FIG. 45).
The NO/ONOO^− nanosensor was positioned near the surface of the endothelial cells using a computer-controlled M3301 micromanipulator (x-y-z resolution of 0.2 μm) and microscope (both from World Precision Instruments, Berlin, Germany) fitted with a CD camera. Each analyte was measured from amperograms and standard calibration curves collected under maximum current. […] After establishing a background current, maximal NO and ONOO^− release was induced by injecting Cal into the organ chamber using a nanoinjector (World Precision Instruments, Berlin Germany). Changes in current (proportional to the molar concentrations of NO or ONOO^− released) were monitored continuously immediately following Cal stimulation.
Data are presented as mean+standard deviation (SD) for (N) separate samples or experiments. Differences between groups were analyzed using the unpaired, two-tailed Student's t-test (for comparisons between only two groups) or ANOVA followed by Student-Newman-Keuls multiple comparisons post hoc analysis (for comparisons between three or more groups). Only differences with probability values less than 0.05 were considered significant.

HMG-CoA reductase = target: T1, HMG-CoA reductase (Homo sapiens, UniProt P04035); conditions: metabolized by hepatic cytochrome P450; cited from earlier work
T1 sequence (P04035 1-888): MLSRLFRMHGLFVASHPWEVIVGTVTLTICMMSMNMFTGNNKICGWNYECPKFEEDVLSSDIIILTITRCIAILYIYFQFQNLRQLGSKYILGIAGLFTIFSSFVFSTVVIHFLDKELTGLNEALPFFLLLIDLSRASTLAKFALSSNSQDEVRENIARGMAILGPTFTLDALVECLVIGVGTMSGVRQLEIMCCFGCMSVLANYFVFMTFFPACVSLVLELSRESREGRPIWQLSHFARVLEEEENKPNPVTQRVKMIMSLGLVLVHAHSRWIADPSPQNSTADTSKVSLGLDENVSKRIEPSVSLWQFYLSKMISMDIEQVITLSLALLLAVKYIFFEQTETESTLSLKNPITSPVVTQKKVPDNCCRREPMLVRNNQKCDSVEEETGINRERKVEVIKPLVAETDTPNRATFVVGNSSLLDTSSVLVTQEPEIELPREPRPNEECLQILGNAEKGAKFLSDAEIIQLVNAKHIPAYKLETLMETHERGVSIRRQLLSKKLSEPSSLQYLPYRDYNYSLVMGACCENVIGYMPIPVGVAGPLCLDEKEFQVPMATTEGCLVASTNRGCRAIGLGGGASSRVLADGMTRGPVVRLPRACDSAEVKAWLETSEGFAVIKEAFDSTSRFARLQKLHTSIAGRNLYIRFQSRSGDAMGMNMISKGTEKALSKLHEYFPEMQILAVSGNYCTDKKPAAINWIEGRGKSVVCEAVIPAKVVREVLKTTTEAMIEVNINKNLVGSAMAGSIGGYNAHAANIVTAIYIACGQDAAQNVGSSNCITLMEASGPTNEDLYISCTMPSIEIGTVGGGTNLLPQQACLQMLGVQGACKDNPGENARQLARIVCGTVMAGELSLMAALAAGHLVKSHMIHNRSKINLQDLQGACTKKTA

[3] = 80 mg for 16 weeks; 2,341 patients; cited from earlier work
[4] = 10 mg, administered for 12 weeks; cited from earlier work

CC(C)c1c(C(=O)Nc2ccccc2O)c(-c2ccccc2)c(-c2ccc(F)cc2)n1CC[C@@H](O)C[C@@H](O)CC(=O)O [ATM, Atorvastatin ortho-(o-) hydroxy (active) metabolite]
effect on unfractionated LDL oxidation, dose dependence (human LDL; 1 hour): significant and dose-dependent inhibition of unfractionated LDL oxidation beginning at 1.0 μM | antioxidant effect, separate treatments [1]: separate and potent antioxidant effects | inhibition of sdLDL oxidation as compared to vehicle (human sdLDL; 1.0 μM (each agent), 1 hr): 18±5% | inhibition of sdLDL oxidation as compared to vehicle (human sdLDL; ATM 0.5 μM, alone or in combination with EPA 1.0 μM, 1 hr): 5±5% | inhibition of sdLDL oxidation (human sdLDL; ATM at the highest dose, 1 hr): 90±2% | increase in NO release [2]: 205% | reduction of ONOO^− release [2]: 25%

CC(C)c1c(C(=O)Nc2ccccc2)c(-c2ccccc2)c(-c2ccc(F)cc2)n1CC[C@@H](O)C[C@@H](O)CC(=O)O [atorvastatin]
antioxidant activity, separately (human LDL; 10.0 μM, unfractionated LDL): did not have any significant antioxidant activity | share of circulating HMG-CoA reductase inhibitory activity accounted for by the active metabolites (HMG-CoA reductase): approximately 70% | levels of oxidized lipids associated with all apoB100-containing lipid particles [3]: significant reduction in levels of oxidized lipids | antioxidant activity, separately (human sdLDL; 10.0 μM, sdLDL): did not have any significant antioxidant activity | inhibition of sdLDL oxidation as compared to vehicle (human sdLDL; each agent at 10.0 μM, 1 hour (FIG. 17)): 0.1±7% | circulating levels of chlorotyrosine, nitrotyrosine, and dityrosine [4]: significantly reduce circulating levels of chlorotyrosine, nitrotyrosine, and dityrosine
